# Measurements as given in paper PMC7253457, “Nitrite modulates aminoglycoside tolerance by inhibiting cytochrome heme-copper oxidase in bacteria” (Communications Biology, 2020).
# What was measured:
# [1] = target: T1, S. oneidensis cbb3 (heme-copper oxidase cbb3) (Shewanella oneidensis, UniProt Q8EEL5); conditions: read-out: IC50(NO2^-); 5 mM NADH as electron donor; ~70 μM O2; membranes of delta-cyd strain
# T1 construct: gene ccoN
# Text: oxygen consumption of membranes, O2 electrode on S. oneidensis cbb3 (heme-copper oxidase cbb3)
# [2] = target: T2, E. coli bo3 (cytochrome bo3 oxidase) (Escherichia coli, UniProt P0ABI8); assay: biochemical
# T2 construct: gene cyoB
# T2 sequence (P0ABI8 whole entry): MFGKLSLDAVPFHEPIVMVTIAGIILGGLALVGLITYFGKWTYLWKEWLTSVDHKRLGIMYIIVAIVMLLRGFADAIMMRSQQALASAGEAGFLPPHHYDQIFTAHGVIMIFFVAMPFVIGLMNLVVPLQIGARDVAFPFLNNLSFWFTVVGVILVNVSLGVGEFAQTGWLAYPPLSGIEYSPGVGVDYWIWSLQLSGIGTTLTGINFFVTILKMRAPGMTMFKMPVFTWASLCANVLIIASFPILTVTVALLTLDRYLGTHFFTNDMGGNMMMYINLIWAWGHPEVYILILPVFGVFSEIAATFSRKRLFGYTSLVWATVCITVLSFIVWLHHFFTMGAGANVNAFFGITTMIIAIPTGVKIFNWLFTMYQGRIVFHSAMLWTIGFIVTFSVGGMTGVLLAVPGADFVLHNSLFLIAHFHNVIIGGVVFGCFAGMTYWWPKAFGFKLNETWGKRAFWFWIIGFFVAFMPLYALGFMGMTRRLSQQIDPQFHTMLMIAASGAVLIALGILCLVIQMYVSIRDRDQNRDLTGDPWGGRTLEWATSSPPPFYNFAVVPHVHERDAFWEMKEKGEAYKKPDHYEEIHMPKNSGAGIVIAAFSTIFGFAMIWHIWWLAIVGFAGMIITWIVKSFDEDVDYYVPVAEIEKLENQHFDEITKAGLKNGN
# T2 sequence (P0ABJ1 25-315 partner): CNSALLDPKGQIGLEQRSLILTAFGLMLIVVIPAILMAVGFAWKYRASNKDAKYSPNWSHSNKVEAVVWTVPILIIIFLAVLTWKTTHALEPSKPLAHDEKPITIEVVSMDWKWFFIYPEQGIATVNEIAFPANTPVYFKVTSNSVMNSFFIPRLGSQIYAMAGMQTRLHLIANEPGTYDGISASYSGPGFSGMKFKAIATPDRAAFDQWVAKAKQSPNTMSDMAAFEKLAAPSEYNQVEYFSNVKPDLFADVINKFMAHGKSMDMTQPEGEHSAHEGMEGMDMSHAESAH
# T2 sequence (P0ABJ3 whole entry partner): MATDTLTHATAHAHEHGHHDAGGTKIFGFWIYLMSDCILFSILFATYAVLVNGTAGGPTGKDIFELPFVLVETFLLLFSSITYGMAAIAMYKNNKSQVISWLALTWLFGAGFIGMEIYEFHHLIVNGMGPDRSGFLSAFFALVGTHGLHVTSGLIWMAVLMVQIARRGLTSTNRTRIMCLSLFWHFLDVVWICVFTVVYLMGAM
# T2 sequence (P0ABJ6 whole entry partner): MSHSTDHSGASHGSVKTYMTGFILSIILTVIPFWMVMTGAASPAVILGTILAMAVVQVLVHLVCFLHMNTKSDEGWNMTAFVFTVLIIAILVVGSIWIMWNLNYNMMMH
# Text: oxygen consumption of membranes, O2 electrode on E. coli bo3 (cytochrome bo3 oxidase)
# [3] = target: T3, S. aureus aa3 (cytochrome aa3 oxidase) (Staphylococcus aureus, UniProt Q7A699); assay: biochemical
# T3 construct: gene qoxB
# T3 sequence (Q7A699 whole entry): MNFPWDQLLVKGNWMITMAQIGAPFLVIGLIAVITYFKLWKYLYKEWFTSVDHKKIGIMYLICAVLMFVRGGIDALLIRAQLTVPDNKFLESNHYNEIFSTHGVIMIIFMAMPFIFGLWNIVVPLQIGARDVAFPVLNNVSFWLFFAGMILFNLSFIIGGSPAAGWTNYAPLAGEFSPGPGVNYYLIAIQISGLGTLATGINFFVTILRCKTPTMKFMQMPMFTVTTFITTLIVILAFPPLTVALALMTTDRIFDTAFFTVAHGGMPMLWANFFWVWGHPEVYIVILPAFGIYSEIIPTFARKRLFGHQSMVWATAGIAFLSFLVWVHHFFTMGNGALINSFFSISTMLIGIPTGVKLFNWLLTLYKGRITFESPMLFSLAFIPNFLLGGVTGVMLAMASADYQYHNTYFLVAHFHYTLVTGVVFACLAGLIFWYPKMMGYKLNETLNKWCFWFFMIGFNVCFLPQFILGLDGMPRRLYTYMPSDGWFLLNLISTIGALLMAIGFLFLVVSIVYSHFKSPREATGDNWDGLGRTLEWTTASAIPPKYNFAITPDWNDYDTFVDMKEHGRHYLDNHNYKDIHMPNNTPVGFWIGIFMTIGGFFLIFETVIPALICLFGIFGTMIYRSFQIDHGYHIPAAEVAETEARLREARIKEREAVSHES
# T3 sequence (Q7A698 20-366 partner): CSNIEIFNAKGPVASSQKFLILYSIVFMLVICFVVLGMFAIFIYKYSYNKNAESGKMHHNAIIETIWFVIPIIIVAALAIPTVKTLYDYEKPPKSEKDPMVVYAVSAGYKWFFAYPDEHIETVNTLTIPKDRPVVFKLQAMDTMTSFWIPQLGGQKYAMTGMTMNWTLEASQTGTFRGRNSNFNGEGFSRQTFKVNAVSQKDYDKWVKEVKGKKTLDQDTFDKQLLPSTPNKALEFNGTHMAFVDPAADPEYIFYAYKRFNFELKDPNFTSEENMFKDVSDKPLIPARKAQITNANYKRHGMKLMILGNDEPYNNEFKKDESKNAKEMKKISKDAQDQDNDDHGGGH
# T3 sequence (Q7A6A0 whole entry partner): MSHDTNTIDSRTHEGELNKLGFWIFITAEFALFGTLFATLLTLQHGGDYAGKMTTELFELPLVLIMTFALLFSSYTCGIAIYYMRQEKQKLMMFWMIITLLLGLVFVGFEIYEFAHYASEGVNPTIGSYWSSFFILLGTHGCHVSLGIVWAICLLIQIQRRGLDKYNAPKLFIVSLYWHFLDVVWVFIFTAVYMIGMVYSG
# T3 sequence (Q7A6A1 whole entry partner): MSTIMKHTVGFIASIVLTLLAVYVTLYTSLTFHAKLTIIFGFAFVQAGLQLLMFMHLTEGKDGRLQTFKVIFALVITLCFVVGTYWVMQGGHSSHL
# Text: oxygen consumption of membranes, O2 electrode on S. aureus aa3 (cytochrome aa3 oxidase)
# [4] = target: T4, bd (bd-type quinol oxidase) (Shewanella oneidensis, UniProt Q8EC58); conditions: read-out: IC50(NO2^-); 5 mM NADH as electron donor; ~70 μM O2; membranes of delta-cco strain
# T4 construct: gene cydA
# T4 sequence (Q8EC58 1-518): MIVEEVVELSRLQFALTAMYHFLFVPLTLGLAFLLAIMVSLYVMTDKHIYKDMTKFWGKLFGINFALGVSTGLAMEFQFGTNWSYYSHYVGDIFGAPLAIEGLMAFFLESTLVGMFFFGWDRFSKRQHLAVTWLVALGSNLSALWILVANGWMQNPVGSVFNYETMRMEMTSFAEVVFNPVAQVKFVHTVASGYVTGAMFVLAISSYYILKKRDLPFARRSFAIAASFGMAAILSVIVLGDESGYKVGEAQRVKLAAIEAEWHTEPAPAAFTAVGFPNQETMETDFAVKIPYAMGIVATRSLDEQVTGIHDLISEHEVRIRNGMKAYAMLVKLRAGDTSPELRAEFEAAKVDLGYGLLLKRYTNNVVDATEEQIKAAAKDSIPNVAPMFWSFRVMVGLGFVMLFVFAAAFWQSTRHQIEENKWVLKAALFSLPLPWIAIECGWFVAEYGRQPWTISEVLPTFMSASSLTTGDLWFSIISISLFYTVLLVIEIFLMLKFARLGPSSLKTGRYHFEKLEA
# T4 sequence (Q8EC59 1-379 partner): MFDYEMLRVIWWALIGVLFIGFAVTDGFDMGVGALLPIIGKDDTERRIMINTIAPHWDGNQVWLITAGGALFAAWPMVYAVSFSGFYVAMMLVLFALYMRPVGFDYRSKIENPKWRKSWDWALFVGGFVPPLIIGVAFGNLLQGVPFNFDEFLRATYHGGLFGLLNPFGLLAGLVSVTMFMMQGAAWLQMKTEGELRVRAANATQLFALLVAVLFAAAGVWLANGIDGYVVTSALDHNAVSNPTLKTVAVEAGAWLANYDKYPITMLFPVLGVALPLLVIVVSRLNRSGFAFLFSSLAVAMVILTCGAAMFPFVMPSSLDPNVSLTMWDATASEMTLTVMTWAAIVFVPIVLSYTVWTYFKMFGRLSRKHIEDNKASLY
# Text: oxygen consumption of membranes, O2 electrode on bd (bd-type quinol oxidase)
# T1 sequence (Q8EEL5 1-478): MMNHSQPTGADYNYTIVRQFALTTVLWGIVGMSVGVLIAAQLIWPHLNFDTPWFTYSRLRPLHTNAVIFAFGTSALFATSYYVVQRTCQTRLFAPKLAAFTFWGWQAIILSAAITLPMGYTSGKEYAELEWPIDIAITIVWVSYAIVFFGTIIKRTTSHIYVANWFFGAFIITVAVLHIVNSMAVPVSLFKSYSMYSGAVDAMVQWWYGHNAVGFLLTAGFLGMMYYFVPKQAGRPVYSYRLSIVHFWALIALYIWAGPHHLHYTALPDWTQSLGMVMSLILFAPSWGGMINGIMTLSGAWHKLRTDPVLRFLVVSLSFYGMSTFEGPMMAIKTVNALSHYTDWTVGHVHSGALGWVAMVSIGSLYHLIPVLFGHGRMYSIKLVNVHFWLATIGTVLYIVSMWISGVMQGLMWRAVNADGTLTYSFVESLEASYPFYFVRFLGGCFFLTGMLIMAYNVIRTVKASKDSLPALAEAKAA
# T1 sequence (Q8EEL6 1-208 partner): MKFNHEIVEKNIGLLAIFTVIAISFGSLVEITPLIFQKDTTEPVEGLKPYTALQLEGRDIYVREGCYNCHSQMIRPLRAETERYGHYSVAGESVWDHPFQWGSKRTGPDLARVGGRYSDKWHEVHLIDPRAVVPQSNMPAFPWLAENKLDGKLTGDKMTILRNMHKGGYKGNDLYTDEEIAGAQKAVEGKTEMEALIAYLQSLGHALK
# T1 sequence (Q8EEL8 1-322 partner): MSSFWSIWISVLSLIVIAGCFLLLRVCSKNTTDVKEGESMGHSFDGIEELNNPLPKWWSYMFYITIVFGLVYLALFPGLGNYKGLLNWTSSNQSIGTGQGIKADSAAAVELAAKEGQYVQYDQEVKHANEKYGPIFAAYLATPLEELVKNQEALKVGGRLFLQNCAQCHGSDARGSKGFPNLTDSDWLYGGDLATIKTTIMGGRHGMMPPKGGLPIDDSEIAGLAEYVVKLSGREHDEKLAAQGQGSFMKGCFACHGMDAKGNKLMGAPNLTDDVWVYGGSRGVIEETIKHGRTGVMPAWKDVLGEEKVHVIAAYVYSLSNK
# T1 sequence (Q8EEL7 1-58 partner): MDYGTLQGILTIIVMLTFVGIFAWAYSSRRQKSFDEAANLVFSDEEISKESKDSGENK
structure (smiles),measurement,setting,value
O=NO [nitrite],IC50,[1],57 ± 6 µM
same,IC50,[2],120 ± 13 µM
same,IC50,[3],137 ± 15 µM
same,IC50,[4],207 ± 18 µM
